Measured values published in PMC7070407, “Moringin, A Stable Isothiocyanate from Moringa oleifera, Activates the Somatosensory and Pain Receptor TRPA1 Channel In Vitro” (Molecules, 2020).

Experiments:
[1] = tested on: not transfected HEK-293 cells; test: Effect on [Ca2+]i in not transfected HEK-293 cells (baseline); assay type: cell-based, human; conditions: AITC 100 μM
Protocol: Compound and extracts’ effects on intracellular Ca^2+ concentration ([Ca^2+]i) were determined using the selective intracellular fluorescent probe for Ca^2+ Fluo-4. Assay of rat TRPA1, TRPV2, TRPV3, TRPV4, TRPM8 or human TRPV1 mediated elevation of intracellular Ca^2+ in transfected HEK-293 cells are been performed as described. Briefly, human embryonic kidney (HEK-293) cells, stably transfected with rat TRPA1, TRPV2, TRPV3, TRPV4, TRPM8 or human TRPV1 (selected by Geneticin 600 μg mL^−1) or not transfected, were cultured in EMEM + 2 mM Glutamine + 1% Non-Essential Amino Acids (NEAA) + 10% FBS and maintained at 37 °C with 5% CO2. Stable transfections were checked by quantitative real-time polymerase chain reaction (PCR), quantitative real-time PCR was performed by an iCycler-iQ (Bio-Rad, Hercules, CA, USA) in a 20 μL reaction mixture containing the following: 10 μL iQ SYBR Green Supermix 2X (Bio-Rad), 20 ng of cDNA (calculated on the basis of the retro-transcribed RNA), and 330 nM for each primer. […] Cell fluorescence before and after the addition of various concentrations of test compounds and extracts were measured normalizing the effects against the response to ionomycin (4 µM). […] The potency of the compounds (EC50 values) are determined as the concentration required to produce half-maximal increases in [Ca^2+]i. […]

[2] = target: T1, rat TRPA1 (Rattus norvegicus, UniProt Q6RI86); parameters: method as in PMID 28903060; conditions: TRPA1 in vitro; cited from earlier work
T1 construct: expressed in transfected cells; host or cells: HEK-293
T1 sequence (Q6RI86 whole entry): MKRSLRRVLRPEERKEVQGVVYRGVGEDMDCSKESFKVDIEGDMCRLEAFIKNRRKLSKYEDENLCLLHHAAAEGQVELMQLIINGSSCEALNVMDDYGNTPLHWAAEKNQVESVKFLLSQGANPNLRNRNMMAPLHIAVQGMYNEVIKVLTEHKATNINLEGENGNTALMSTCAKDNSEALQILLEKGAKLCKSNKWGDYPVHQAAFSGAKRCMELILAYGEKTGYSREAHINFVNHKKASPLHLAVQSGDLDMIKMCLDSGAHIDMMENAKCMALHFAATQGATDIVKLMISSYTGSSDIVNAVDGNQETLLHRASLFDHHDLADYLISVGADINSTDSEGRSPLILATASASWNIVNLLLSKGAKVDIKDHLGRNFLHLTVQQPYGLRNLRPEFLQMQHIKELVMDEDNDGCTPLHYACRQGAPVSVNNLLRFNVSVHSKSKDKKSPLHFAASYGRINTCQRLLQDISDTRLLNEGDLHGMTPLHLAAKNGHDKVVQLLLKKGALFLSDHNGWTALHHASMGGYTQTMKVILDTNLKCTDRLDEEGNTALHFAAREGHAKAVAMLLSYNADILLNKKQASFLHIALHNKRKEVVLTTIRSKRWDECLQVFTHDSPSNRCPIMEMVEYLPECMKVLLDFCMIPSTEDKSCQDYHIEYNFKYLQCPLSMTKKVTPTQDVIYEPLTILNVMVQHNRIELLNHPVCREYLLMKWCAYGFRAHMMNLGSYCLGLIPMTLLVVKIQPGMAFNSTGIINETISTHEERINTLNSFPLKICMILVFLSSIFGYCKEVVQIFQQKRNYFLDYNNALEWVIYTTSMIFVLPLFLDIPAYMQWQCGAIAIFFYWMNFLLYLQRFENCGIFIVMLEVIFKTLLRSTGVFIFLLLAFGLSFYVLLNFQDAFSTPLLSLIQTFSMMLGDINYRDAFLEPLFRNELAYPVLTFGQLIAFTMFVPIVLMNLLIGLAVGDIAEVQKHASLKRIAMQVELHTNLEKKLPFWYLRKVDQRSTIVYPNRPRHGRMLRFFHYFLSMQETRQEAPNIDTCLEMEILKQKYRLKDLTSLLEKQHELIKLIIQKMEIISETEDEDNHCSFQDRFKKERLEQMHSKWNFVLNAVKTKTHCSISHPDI

## C=CCN=C=S [AITC, Allylisothiocyanate, reference compound]
[1]
  Effect on not transfected HEK-293 cells: about 1%

## COc1cc(/C=C/C(=O)CC(=O)/C=C/c2ccc(O)c(OC)c2)ccc1O [curcumin]
[2]
  EC50: 3.3 µM
